Test results reported in patent publication US20260014147A1, “STAT6 DEGRADERS” (Gilead Sciences, Inc., priority 2024, published 2026).

Biological target: T1, STAT6 (endogenous, HiBiT-tagged) in HeLa LgBiT clone 4.14 cells (Homo sapiens, UniProt P42226)
T1 construct: These cells express endogenous STAT6; host or cells: HeLa LgBiT clone 4.14
T1 sequence (P42226 1-847): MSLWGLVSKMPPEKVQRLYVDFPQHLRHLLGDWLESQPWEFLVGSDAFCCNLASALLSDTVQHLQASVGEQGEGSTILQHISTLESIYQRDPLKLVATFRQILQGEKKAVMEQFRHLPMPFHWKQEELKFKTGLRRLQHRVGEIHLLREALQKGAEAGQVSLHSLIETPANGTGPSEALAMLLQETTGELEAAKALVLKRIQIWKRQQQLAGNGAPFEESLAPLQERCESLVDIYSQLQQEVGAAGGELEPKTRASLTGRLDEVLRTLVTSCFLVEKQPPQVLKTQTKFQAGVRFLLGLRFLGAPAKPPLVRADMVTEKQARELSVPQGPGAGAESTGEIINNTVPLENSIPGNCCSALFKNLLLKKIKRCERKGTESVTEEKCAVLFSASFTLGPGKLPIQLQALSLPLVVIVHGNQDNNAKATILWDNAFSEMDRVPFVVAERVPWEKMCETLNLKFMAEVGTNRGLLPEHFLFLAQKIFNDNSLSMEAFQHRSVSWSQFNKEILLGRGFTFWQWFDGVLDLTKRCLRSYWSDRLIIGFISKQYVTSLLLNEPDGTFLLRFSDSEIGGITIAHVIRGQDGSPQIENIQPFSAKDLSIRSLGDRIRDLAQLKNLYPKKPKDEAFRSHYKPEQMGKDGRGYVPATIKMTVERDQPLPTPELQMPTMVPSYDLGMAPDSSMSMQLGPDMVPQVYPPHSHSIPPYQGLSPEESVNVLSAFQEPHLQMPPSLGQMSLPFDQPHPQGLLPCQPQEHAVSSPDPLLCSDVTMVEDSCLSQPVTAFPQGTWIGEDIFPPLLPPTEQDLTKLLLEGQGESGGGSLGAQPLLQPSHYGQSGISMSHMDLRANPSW
Assay: STAT6 Degrader Assay (HiBiT based, HeLa LgBiT clone 4.14 cells, luminescence, DC50)
Assay type: cell-based
Settings: DC50 provided for test compounds with >80% Emax, geometric mean, read-out: STAT6 degradation DC50
Procedure: This was a HiBit based assay. A HeLa cell line stably transfected with a small protein, LgBit (Large Bit) was obtained from Promega. These cells express endogenous STAT6. A small 11 amino acid gene sequence (HiBiT) was inserted in the STAT6 gene using CRISPR technology. Once STAT6 protein is expressed in the cells, the HiBiT sequence will bind the LgBit in the cells resulting in a functional NanoBiT protein, giving a luminescent tag to STAT6. Single cell clones were prepared and the clone 4.14 was selected for the assay based on that clone showing high luminescence, high STAT6 phosphorylation upon stimulation with IL-4, and inhibition of luminescence when cells were treated with STAT6 siRNA. HeLa LgBiT clone 4.14 cells were suspended in DMEM with 10% FCS, 1% Pen/Strep, Na-pyrovate and Hygromycin B, at a concentration of […]. 5000 cells were added pr well of a 384 well plate and 20 nL of compound was added by Echo® liquid handler. NN6394A (terfenadine, a toxic compound) was added to control wells at 50 µM concentration to establish the assay window. In these wells the cells are dead which equals 100% degradation of STAT6. After 4-24 h of incubation at 37° C. under 5% CO2/95% air, […] substrate (Nano-GLO®) was added to the wells and the plates were centrifuged and incubated for 0.5 h. The luminescence in the wells as a measure of non-degraded STAT6 was measured in a plate reader (BMG Pherastar FSX). The dose-response curves for Examples 2a2, 2t1, 2 h3, and 2r1 are shown below (where percent degradation is plotted vs. test compound concentration in M on a log-scale).

| Compound | DC50 |
| --- | --- |
| C[C@@H](c1cc2c(-c3ccc4[nH]ncc4c3)ccnc2n1C)N1CCC(c2ccc(C(=O)N3CCC(CN4CCN(c5ccc(NC6CCC(=O)NC6=O)cc5F)CC4)CC3)cc2)CC1 (stereo partly drawn) [Example 2c17, 3-((4-(4-((1-(4-(1-((S)-1-(4-(1H-indazol-5-yl)-1-methyl-1H-pyrrolo[2,3-b]pyridin-2-yl)-ethyl)piperidin-4-yl)benzoyl)piperidin-4-yl)methyl)piperazin-1-yl)-3-fluorophenyl)amino)piperidine-2,6-dione] | 2.7 nM |
| COc1cc(C2CCN(Cc3cc4n(n3)CCN(C(=O)c3ccc(C5CCN([C@@H](C)c6cc7c(-c8ccc(N)nc8)ccnc7n6C)CC5)cc3)C4)CC2)ccc1NC1CCC(=O)NC1=O (stereo partly drawn) [Example 2c44, 3-((4-(1-((5-(4-(1-((S)-1-(4-(6-aminopyridin-3-yl)-1-methyl-1H-pyrrolo[2,3-b]pyridin-2-yl)ethyl)piperidin-4-yl)benzoyl)-4,5,6,7-tetrahydropyrazolo[1,5-a]pyrazin-2-yl)methyl)piperidin-4-yl)-2-methoxyphenyl)amino)piperidine-2,6-dione] | 0.7 nM |

Same assay, conditions: Emax provided for test compounds with <80% Emax (and 2c15), geometric mean, read-out: STAT6 degradation Emax

| Compound | Emax |
| --- | --- |
| Cc1cc(C(=O)N2CCC(CN3CCN(c4ccc(NC5CCC(=O)NC5=O)cc4F)CC3)CC2)cc(C)c1C1=CCN(Cc2cc3c(-c4ccc(N)nc4)ccnc3n2C)CC1 (stereo not shown) [Example 2c15, 3-((4-(4-((1-(4-(1-((4-(6-aminopyridin-3-yl)-1-methyl-1H-pyrrolo[2,3-b]pyridin-2-yl)methyl)-1,2,3,6-tetrahydropyridin-4-yl)-3,5-dimethylbenzoyl)piperidin-4-yl)methyl)piperazin-1-yl)-3-fluorophenyl)amino)piperidine-2,6-dione] | 80 to 90% |
| Cn1c(CN2CCC(c3ccc(C(=O)N4CCC(CN5CCN(c6c(F)cc(NC7CCC(=O)NC7=O)cc6F)CC5)CC4)cc3)CC2)cc2c(-c3ccc4[nH]ncc4c3)ccnc21 (stereo not shown) [Example 2c34, 3-((4-(4-((1-(4-(1-((4-(1H-indazol-5-yl)-1-methyl-1H-pyrrolo[2,3-b]pyridin-2-yl)methyl)-piperidin-4-yl)benzoyl)piperidin-4-yl)methyl)piperazin-1-yl)-3,5-difluorophenyl)amino)piperidine-2,6-dione] | 70 to 80% |
| Cn1c(CN2CC=C(c3ccc(C(=O)N4CCn5nc(CN6CCC(c7ccc(NC8CCC(=O)NC8=O)cc7F)CC6)cc5C4)cn3)CC2)cc2c(-c3ccc(N)nc3)ccnc21 (stereo not shown) [Example 2c37, 3-((4-(1-((5-(1′-((4-(6-aminopyridin-3-yl)-1-methyl-1H-pyrrolo[2,3-b]pyridin-2-yl)methyl)-1′, 2′, 3′, 6′-tetrahydro-[2,4′-bipyridine]-5-carbonyl)-4,5,6,7-tetrahydropyrazolo[1,5-a]pyrazin-2-yl)methyl)piperidin-4-yl)-3-fluorophenyl)amino)piperidine-2,6-dione] | < 20% |
| Cn1c(CN2CC=C(c3ccc(C(=O)N4CCn5nc(CN6CCC(c7ccc(NC8CCC(=O)NC8=O)cc7F)CC6)cc5C4)cn3)CC2)cc2c(-c3ccc(N)nn3)ccnc21 (stereo not shown) [Example 2c38, 3-((4-(1-((5-(1′-((4-(6-aminopyridazin-3-yl)-1-methyl-1H-pyrrolo[2,3-b]pyridin-2-yl)methyl)-1′, 2′, 3′, 6′-tetrahydro-[2,4′-bipyridine]-5-carbonyl)-4,5,6,7-tetrahydropyrazolo[1,5-a]pyrazin-2-yl)methyl)piperidin-4-yl)-3-fluorophenyl)amino)piperidine-2,6-dione] | < 20% |
| Cn1c(CN2CCN(c3ccc(C(=O)N4CCC(CN5CCN(c6ccc(NC7CCC(=O)NC7=O)cc6F)CC5)CC4)cc3)CC2)cc2c(-c3ccc(N)nc3)ccnc21 (stereo not shown) [Example 2c39, 3-((4-(4-((1-(4-(4-((4-(6-aminopyridin-3-yl)-1-methyl-1H-pyrrolo[2,3-b]pyridin-2-yl)methyl)piperazin-1-yl)benzoyl)piperidin-4-yl)methyl)piperazin-1-yl)-3-fluorophenyl)amino)piperidine-2,6-dione] | < 20% |
| Cc1cc(C(=O)N2CCn3nc(CN4CCC(c5ccc(NC6CCC(=O)NC6=O)cc5F)CC4)cc3C2)cnc1C1=CCN(Cc2cc3c(-c4ccc(N)nn4)ccnc3n2C)CC1 (stereo not shown) [Example 2c48, 3-((4-(1-((5-(1′-((4-(6-aminopyridazin-3-yl)-1-methyl-1H-pyrrolo[2,3-b]pyridin-2-yl)methyl)-3-methyl-1′, 2′, 3′, 6′-tetrahydro-[2,4′-bipyridine]-5-carbonyl)-4,5,6,7-tetrahydropyrazolo[1,5-a]pyrazin-2-yl)methyl)piperidin-4-yl)-3-fluorophenyl)amino)piperidine-2,6-dione] | < 20% |
| COCc1nc2cc(-c3ccnc4c3cc(CN3CCC(c5ccc(C(=O)N6CCC(CN7CCN(Cc8ccc(-n9cc(N%10CCC(=O)NC%10=O)nn9)cc8)CC7)CC6)cc5)CC3)n4C)ccc2[nH]1 [Example 2c56, 1-(1-(4-((4-((1-(4-(1-((4-(2-(methoxymethyl)-1H-benzo[d]imidazol-5-yl)-1-methyl-1H-pyrrolo[2,3-b]pyridin-2-yl)methyl)piperidin-4-yl)benzoyl)piperidin-4-yl)methyl)piperazin-1-yl)methyl)-phenyl)-1H-1,2,3-triazol-4-yl) dihydropyrimidine-2,4 (1H,3H)-dione] | < 20% |
| CNc1ccc(-c2ccnc3c2cc([C@@H](C)N2CC=C(c4c(C)cc(C(=O)N5CCC(CCn6cc(-c7ccc(NC8CCC(=O)NC8=O)cc7)nn6)CC5)cc4F)CC2)n3C)cn1 (stereo partly drawn) [Example 2c57, 3-((4-(1-(2-(1-(3-fluoro-5-methyl-4-(1-((R)-1-(1-methyl-4-(6-(methylamino)pyridin-3-yl)-1H-pyrrolo[2,3-b]pyridin-2-yl)ethyl)-1,2,3,6-tetrahydropyridin-4-yl)benzoyl)piperidin-4-yl)ethyl)-1H-1,2,3-triazol-4-yl)phenyl)amino)piperidine-2,6-dione] | < 20% |
| Cn1c(CN2CCC(c3ccc(C(=O)N4CCC(CN5CCN(c6ccc(C(=O)NC7CCC(=O)NC7=O)nn6)CC5)CC4)cc3)CC2)cc2c(-c3ccc4[nH]ncc4c3)ccnc21 (stereo not shown) [Example 2d1, 6-(4-((1-(4-(1-((4-(1H-indazol-5-yl)-1-methyl-1H-pyrrolo[2,3-b]pyridin-2-yl)methyl)-piperidin-4-yl)benzoyl)piperidin-4-yl)methyl)piperazin-1-yl)-N-(2,6-dioxopiperidin-3-yl) pyridazine-3-carboxamide] | 50 to 60% |
| Cn1c(CN2CCC(c3ccc(C(=O)N4CCC(CN5CCN(C(=O)c6ccc(NC7CCC(=O)NC7=O)cc6F)CC5)CC4)cc3)CC2)cc2c(-c3ccc(N)nc3)ccnc21 (stereo not shown) [Example 2e2, 3-((4-(4-((1-(4-(1-((4-(6-aminopyridin-3-yl)-1-methyl-1H-pyrrolo[2,3-b]pyridin-2-yl)methyl)-piperidin-4-yl)benzoyl)piperidin-4-yl)methyl)piperazine-1-carbonyl)-3-fluorophenyl)amino)piperidine-2,6-dione] | < 20% |
| C[C@H]1CN(c2ccc(NC3CCC(=O)NC3=O)cc2F)CCN1CC1CCN(C(=O)c2ccc(C3CCN(Cc4cc5c(-c6ccc(N)nc6)ccnc5n4C)CC3)cc2)CC1 (stereo partly drawn) [Example 2f3, 3-((4-((S)-4-((1-(4-(1-((4-(6-aminopyridin-3-yl)-1-methyl-1H-pyrrolo[2,3-b]pyridin-2-yl)methyl)piperidin-4-yl)benzoyl)piperidin-4-yl)methyl)-3-methylpiperazin-1-yl)-3-fluorophenyl)amino)-piperidine-2,6-dione] | 20 to 30% |
